Data set [1] relates to Rattus norvegicus. As to the kind of experiment: Induction of hyperactivity in Sprague-Dawley rat at 2.5 to 20 mg/kg, sc. The class given is functional, organism-based.
For data set [2], the system named is Rattus norvegicus. As to the kind of experiment: Induction of stereotyped behaviour in intrastriatally dosed Sprague-Dawley rat at 3.13 to 50 ug administered into caudate putamen. The data set is classed as functional, organism-based.
The subject of data set [3] is Canis familiaris. As to the kind of experiment: Antagonism of apomorphine-induced emesis in sc dosed dog treated 15 mins prior to apomorphine challenge. The data set is classed as functional, organism-based. Conditions: Canis lupus familiaris.
In data set [4] the test system is Felis catus. As to the kind of experiment: Inhibition of 2 Hz electric current-induced cardioaccelerator nerve stimulation in iv dosed cat by cardiotachometer analysis in presence of 2 mg/kg, iv phentolamine. The data set is classed as functional, organism-based. Further details: dose 2 mg/kg. The following applies: at 2 mg/kg.
The test system of data set [5] is Canis familiaris. As to the kind of experiment: Toxicity in dog up to 2 mg/kg, sc. Conditions: in vivo. Further details: dose 2 mg/kg, route subcutaneous. The class given is organism-based, Canis lupus familiaris.
Data set [6] has as its system Rattus norvegicus. As to the kind of experiment: Induction of stereotyped behaviour in Sprague-Dawley rat at 2.5 to 20 mg/kg, sc. The class given is functional, organism-based.
The subject of data set [7] is Canis familiaris. Description: Induction of emesis in sc dosed dog. The data set is classed as functional. The following applies: Canis lupus familiaris.
Data set [8] relates to Felis catus. As to the kind of experiment: Inhibition of 10 Hz electric current-induced cardioaccelerator nerve stimulation in iv dosed cat by cardiotachometer analysis. The data set is classed as functional, organism-based.
Data set [9] deals with Rattus norvegicus. Description: Induction of hyperactivity in Sprague-Dawley rat at 3.13 to 50 ug administered into nucleus accumbens. The class given is functional, organism-based.
Data set [10] has as its system Rattus norvegicus. Description: Induction of stereotyped behaviour in intrastriatally dosed Sprague-Dawley rat at 3.13 to 50 ug administered into nucleus accumbens. The class given is functional, organism-based.
Data set [11] has as its system Felis catus. As to the kind of experiment: Inhibition of 2 Hz electric current-induced cardioaccelerator nerve stimulation in iv dosed cat by cardiotachometer analysis in presence of 0.2 mg/kg, iv haloperidol. The data set is classed as functional, organism-based. Further details: dose 0.2 mg/kg. The following applies: at 0.2 mg/kg.
Data set [12] relates to Rattus norvegicus. Description: Induction of circling behaviour in Sprague-Dawley rat at 2.5 to 20 mg/kg, sc. The class given is functional, organism-based.
For data set [13], the species on record is Felis catus. Description: Agonist activity at dopamine receptor in cat right atrium assessed as inhibition of cardiaccelerator nerve stimulation rate by cardiotachometer analysis. The class given is tissue-based. The following applies: Cardiac atrium.
In data set [14] the test system is Felis catus. As to the kind of experiment: Effect on heart rate in iv dosed cat. The data set is classed as functional, organism-based.
The test system of data set [15] is Felis catus. Description: Inhibition of 2 Hz electric current-induced cardioaccelerator nerve stimulation in iv dosed cat by cardiotachometer analysis. The class given is functional.
The test system of data set [16] is Columba livia. Description: Induction of pecking in im dosed pigeon. The data set is classed as functional, organism-based.
Data set [17] deals with Columba livia. As to the kind of experiment: Antagonism of apomorphine-induced pecking in im dosed pigeon treated 15 mins prior to apomorphine challenge. The class given is functional.
The species named for data set [18] is Canis familiaris. As to the kind of experiment: Inhibition of cardioaccelerator nerve stimulation in dog in presence of phentolamine. The class given is functional, organism-based. Conditions: Canis lupus familiaris.
Data set [19] deals with Rattus norvegicus. Description: Induction of hyperactivity in Sprague-Dawley rat at 3.13 to 50 ug administered into caudate putamen. The class given is functional, organism-based.
Data set [20] relates to Rattus norvegicus. As to the kind of experiment: Induction of stereotyped behaviour in sc dosed Sprague-Dawley rat. The data set is classed as functional, organism-based.
For data set [21], the system named is Rattus norvegicus. Description: Induction of circling behaviour in sc dosed Sprague-Dawley rat assessed as duration of action. The class given is functional.
Data set [22] deals with Rattus norvegicus. As to the kind of experiment: Induction of stereotyped behaviour in sc dosed Sprague-Dawley rat assessed as duration of action. The class given is functional.
Data set [23] concerns Rattus norvegicus. As to the kind of experiment: Induction of circling behaviour in sc dosed Sprague-Dawley rat in presence of 5 mg/kg aceperone. Further details: dose 5 mg/kg. The class given is functional, organism-based.
Data set [24] deals with Rattus norvegicus. As to the kind of experiment: Induction of circling behaviour in sc dosed Sprague-Dawley rat in presence of 5 mg/kg propranolol. The data set is classed as functional, organism-based. Also noted: dose 5 mg/kg.
The test system of data set [25] is Rattus norvegicus. Description: Induction of circling behaviour in sc dosed Sprague-Dawley rat in presence of 0.8 mg/kg haloperidol. The class given is functional, organism-based. Also noted: dose 0.8 mg/kg.
Data set [26] deals with Rattus norvegicus. As to the kind of experiment: Induction of circling behaviour in sc dosed Sprague-Dawley rat assessed as reversal of spontaneous ipsilateral to contralateral circling response. The data set is classed as functional, organism-based.
The test system of data set [27] is Rattus norvegicus. Description: Induction of circling behaviour in sc dosed Sprague-Dawley rat assessed as onset of action. The data set is classed as functional.
Data set [28] concerns Rattus norvegicus. Description: Induction of stereotyped behaviour in sc dosed Sprague-Dawley rat assessed as onset of action. The data set is classed as functional.
For data set [29], the system named is Columba livia. As to the kind of experiment: Induction of pecking in pigeon at 1.62 umol/kg, im. The data set is classed as functional, organism-based.

Active and inactive are the calls of the source. The rule behind the calls is not given here.

In the case of `CN(C)CCc1ccc(O)c(O)c1`, the result in the data set with Rattus norvegicus [1], with Rattus norvegicus [2], in the data set on Rattus norvegicus [6], in the data set on Rattus norvegicus [9], with Rattus norvegicus [10] and in the data set with Rattus norvegicus [12] was inactive. Besides, the outcome in the data set with Felis catus [14], in the data set with Columba livia [16] and in the data set on Rattus norvegicus [19] was inactive. Besides, the inhibition entry in the data set on Canis familiaris [3], in the data set with Felis catus [4], in the data set on Felis catus [8], in the data set with Felis catus [11] and in the data set filed under Canis familiaris [18] was “inactive” throughout. Further, the Activity entry with Canis familiaris [5] is “Non-toxic”. Moreover, in the data set with Canis familiaris [7], the ED50 result was “inactive”. Further, the ED50 in the data set filed under Felis catus [13] turned out to be 70 nM; in the data set on Felis catus [15], 0.024 µmol/kg; in the data set on Columba livia [17] it was 9.7 µmol/kg.
Take `CN1CCc2cccc3c2[C@H]1Cc1ccc(O)c(O)c1-3.CN1CCc2cccc3c2[C@H]1Cc1ccc(O)c(O)c1-3.Cl.Cl.O` [APOMORPHINE HYDROCHLORIDE]: the Activity entry in the data set on Rattus norvegicus [20] is “Dose-dependent effect”. The Time is listed as 40 min in the data set with Rattus norvegicus [21], 20 min with Rattus norvegicus [22], 3 min with Rattus norvegicus [27] and under 5 min in the data set on Rattus norvegicus [28]. Moreover, the ED50 turned out to be 0.13 µmol/kg in the data set with Canis familiaris [7], 43 nM in the data set listed under Felis catus [13] and 0.1 µmol/kg in the data set with Felis catus [15]. Further, the result with Rattus norvegicus [23], in the data set with Rattus norvegicus [24], in the data set on Rattus norvegicus [26] and with Columba livia [29] was Active. Also, the outcome in the data set on Rattus norvegicus [25] was inactive. Besides, the inhibition entry in the data set on Felis catus [11] is “inactive”.

Values taken from ChEMBL document CHEMBL3244265, “Preparation and biological actions of some symmetrically N,N-disubstituted dopamines” (J Med Chem, 1978).
